{
  "source": "patent US10072008B2",
  "about": "“Spiro-isoquinoline-3,4′-piperidine compounds having activity against pain” (LABORATORIOS DEL DR. ESTEVE S.A., priority 2015, dated 2018)",
  "data": [
    {"molecular_target": "human σ1 receptor (Homo sapiens (Human), UniProt Q99720)", "sequence (Q99720 whole entry)": "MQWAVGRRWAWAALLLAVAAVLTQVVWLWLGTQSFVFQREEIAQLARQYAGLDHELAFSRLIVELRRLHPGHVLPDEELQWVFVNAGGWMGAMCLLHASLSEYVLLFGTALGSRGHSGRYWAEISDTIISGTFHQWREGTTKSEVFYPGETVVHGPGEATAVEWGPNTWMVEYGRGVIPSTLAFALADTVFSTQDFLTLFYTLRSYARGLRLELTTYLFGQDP", "experiment": "Human σ1 receptor radioligand assay ([3H](+)-pentazocine, transfected HEK-293 membranes)", "details": "binding to the σ1 receptor expressed as Ki, [3H](+)-pentazocine 5 nM", "experimental": "Human σ1 Receptor Radioligand Assay\nTo investigate binding properties of test compounds to human σ1 receptor, transfected HEK-293 membranes and [^3H](+)-pentazocine (Perkin Elmer, NET-1056), as the radioligand, were used. The assay was carried out with 7 μg of membrane suspension, 5 nM of [^3H](+)-pentazocine in either absence or presence of either buffer or 10 μM Haloperidol for total and non-specific binding, respectively. Binding buffer contained Tris-HCl 50 mM at pH 8. Plates were incubated at 37° C. for 120 minutes. After the incubation period, the reaction mix was then transferred to MultiScreen HTS, FC plates (Millipore), filtered and plates were washed 3 times with ice-cold 10 mM Tris-HCL (pH 7.4). Filters were dried and counted at approximately 40% efficiency in a MicroBeta scintillation counter (Perkin-Elmer) using EcoScint liquid scintillation cocktail", "units": {"Ki": "nM"}, "values": [
      {"compound": "O=C1NC2(CCN(Cc3ccccc3)CC2)Cc2ccccc21", "note": "[Example 2, 1′-benzyl-2,4-dihydro-1H-spiro[isoquinoline-3,4′-piperidin]-1-one]", "Ki": "< 100"},
      {"compound": "CN1Cc2ccccc2CC12CCN(Cc1ccccc1)CC2", "note": "[Example 6, 1′-Benzyl-2-methyl-2,4-dihydro-1H-spiro[isoquinoline-3,4′-piperidine]]", "Ki": "< 100"},
      {"compound": "CN1Cc2ccccc2CC12CCN(CCN1CCOCC1)CC2", "note": "[Example 7, 4-(2-(2-Methyl-2,4-dihydro-1H-spiro[isoquinoline-3,4′-piperidine]-1′-yl)ethyl)morpholine]", "Ki": "< 500"},
      {"compound": "c1ccc(CN2CCC3(CC2)Cc2ccccc2CN3)cc1", "note": "[Example 4, 1′-benzyl-2,4-dihydro-1H-spiro[isoquinoline-3,4′-piperidine]]", "Ki": "< 100"},
      {"compound": "O=C1NC2(CCN(CCc3ccccc3)CC2)Cc2ccccc21", "note": "[Example 1, 1′-(2-Phenylethyl)-2,4-dihydro-1H-spiro[isoquinoline-3,4′-piperidin]-1-one]", "Ki": "< 100"}
    ]}
  ]
}
